Reference: ChEMBL document CHEMBL1201862, “PubChem BioAssay data set” (2004)
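Exposure lasted 48 hours, with cells grown in 96-well plates and compounds tested at five concentrations. At the GI50, growth is halved.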 Active and inactive are the calls of the source. Rule as the data show it: active = GI50 up to about 1.1 µM and inactive = higher.

Experiments:
Test in all cases: NCI anticancer screen, dose series, 48 h
DLD-1 = tested on: DLD-1
LXFL 529 = tested on: LXFL 529
SNB-78 = tested on: SNB-78
KM-20L2 = tested on: KM-20L2
XF498 = tested on: XF498
M19-MEL = tested on: M19-MEL
RXF 631 = tested on: RXF 631
HOP-18 = tested on: HOP-18

Measured: GI50

O=[N+]([O-])c1ccccc1C1N2CCCCC2[C@@H]2c3[nH]c4ccccc4c3CCN12 (some centres undefined)
inactive: DLD-1 14.2 µM | LXFL 529 10.8 µM | SNB-78 15.3 µM | KM-20L2 12.4 µM | XF498 16.9 µM | M19-MEL 6.25 µM | RXF 631 13.2 µM | HOP-18 36.5 µM

CCOC(=O)c1ccc(/C(C)=N/NC(N)=S)cc1
inactive: DLD-1 > 100 µM | LXFL 529 > 100 µM | SNB-78 > 100 µM | KM-20L2 > 100 µM | XF498 > 100 µM | M19-MEL > 100 µM | RXF 631 > 100 µM | HOP-18 > 100 µM

CCOC(=O)NC(=O)c1cn(CCCOC(=O)CCCCCCCCCCC(=O)OCCCn2cc(C(=O)NC(=O)OCC)c(=O)[nH]c2=O)c(=O)[nH]c1=O
inactive: DLD-1 > 100 µM | LXFL 529 > 100 µM | SNB-78 > 100 µM | KM-20L2 > 100 µM | XF498 > 100 µM | M19-MEL > 100 µM | RXF 631 37.3 µM | HOP-18 > 100 µM
